What is called Ki is a dissociation constant, usually derived from enzyme kinetics or from competition with a known ligand. Low readings indicate a stronger hold on the target, high ones a looser hold on the target.

In experiment [1] the target is T1, human neurokinin 1 (NK1) receptor (Homo sapiens, UniProt P25103).
T1 construct: expressed in transfected cells; host or cells: Chinese hamster ovary (CHO) cells, membranes
Kind of experiment: Neurokinin receptor binding assay, NK1 ([3H]-Substance P, CHO cell membranes). The following applies: competition with [3H]-Substance P, Cheng and Prusoff. Here is the method: (§1) Neurokinin Receptor Binding Assay(s)
(§2) Chinese Hamster ovary (CHO) cells transfected with the coding regions for the human neurokinin 1 (NK1) of the human neurokinin 2 (NK2) receptors are grown in Dulbecco's minimal essential medium supplemented with 10% fetal calf serum, 0.1 mM non-essential amino acids, 2 mM glutamine, 100 units/ml of penicillin and streptomycin, and 0.8 mg of G418/ml at 37° C. in a humidified atmosphere containing 5% CO2.
(§3) Cells are detached from T-175 flasks with a sterile solution containing 5 mM EDTA in phosphate buffered saline. Cells are harvested by centrifugation and washed in RPMI media at […] for 5 minutes. The pellet is resuspended in Tris-HCl(pH7.4) containing 1 uM phosphoramidon and 4 ug/ml of chymostatin at a cell density of 30×10^6 cells/ml. The suspension is then homogenized in a Brinkman Polytron (setting 5) for 30-45 seconds. The homogenate is centrifuged at 800×g for 5 min at 4° C. to collect unbroken cells and nuclei. The supernatant is centrifuged in a Sorvall RC5C at 19,000 rpm ([…]) for 30 min at 4° C. The pellet is resuspended, an aliquot is removed for a protein determination (BCA) and washed again. The resulting pellet is stored at -80° C.
(§4) Binding is initiated by the addition of 100 μl of membrane (10-20 μg) containing the human NK-1 or NK-2 receptor in a final volume of 200 μl. After 40 minutes at room temperature, the reaction is stopped by rapid filtration onto Whatman GF/C filters which have been presoaked in 0.3% polyethylenimine. Filters are washed 2 times with 3 ml of 50 mM Tris-HCl (pH7.4). Filters are added to 6 mls of Ready-Safe liquid scintillation cocktail and quantified by liquid scintillation spectrometry in a LKB 1219 RackBeta counter. Non-specific binding is determined by the addition of either 1 μM of CP-99994 (NK1) or 1 μM SR-48968 (NK2) (both synthesized by the chemistry department of Schering-Plough Research Institute).

Experiment [2] addresses T2, human neurokinin 2 (NK2) receptor (Homo sapiens, UniProt P21452).
T2 construct: expressed in transfected cells; host or cells: Chinese hamster ovary (CHO) cells, membranes
T2 sequence (P21452 1-398): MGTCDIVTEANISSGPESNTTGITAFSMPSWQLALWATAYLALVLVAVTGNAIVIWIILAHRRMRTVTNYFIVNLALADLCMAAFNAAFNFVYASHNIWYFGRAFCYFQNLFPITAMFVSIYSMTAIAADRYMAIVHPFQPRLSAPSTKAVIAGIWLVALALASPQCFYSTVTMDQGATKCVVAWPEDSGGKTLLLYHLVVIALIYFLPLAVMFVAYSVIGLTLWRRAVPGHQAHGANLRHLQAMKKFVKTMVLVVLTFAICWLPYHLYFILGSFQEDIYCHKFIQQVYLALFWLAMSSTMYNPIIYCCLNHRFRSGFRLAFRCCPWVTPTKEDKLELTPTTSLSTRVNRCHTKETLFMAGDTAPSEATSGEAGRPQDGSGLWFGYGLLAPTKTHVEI
Put plainly: Neurokinin receptor binding assay, NK2 ([3H]-Neurokinin A, CHO cell membranes). As to conditions: competition with [3H]-Neurokinin A, Cheng and Prusoff. Here is the method:
as §1, §2, §3, §4

T1 sequence (P25103 whole entry): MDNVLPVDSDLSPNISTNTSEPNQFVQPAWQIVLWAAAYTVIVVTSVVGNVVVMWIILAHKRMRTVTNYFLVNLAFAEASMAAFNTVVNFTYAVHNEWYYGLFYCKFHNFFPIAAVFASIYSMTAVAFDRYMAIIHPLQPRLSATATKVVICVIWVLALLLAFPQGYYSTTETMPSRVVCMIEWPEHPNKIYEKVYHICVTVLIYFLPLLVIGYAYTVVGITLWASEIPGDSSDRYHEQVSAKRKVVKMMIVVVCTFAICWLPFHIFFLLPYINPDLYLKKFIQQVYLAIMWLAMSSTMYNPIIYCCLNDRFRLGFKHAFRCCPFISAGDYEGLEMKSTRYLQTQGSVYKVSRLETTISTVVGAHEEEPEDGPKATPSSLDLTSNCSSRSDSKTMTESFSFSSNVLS

As for `Cc1cc(C)cc(C(=O)N2CCN(C(=O)CO[C@@H]3C[C@@H]4C[C@H]3CN4Cc3ccsc3)[C@H](c3ccc(Cl)c(Cl)c3)C2)c1` [Example 50, 2(R)-(3,4-Dichlorophenyl)-4-(3,5-dimethylbenzoyl)-1-[[[exo-2-(3-thienylmethyl)-1(S),4(S)-2-azabicyclo[2.2.1]heptan-5-yl)oxy]acetyl]piperazine], the Ki in experiment [1] worked out at 1.8 nM; in experiment [2], 2.6 nM.
As for `Cc1cc(C)cc(C(=O)N2CCN(C(=O)CCN3C[C@@H]4C[C@H]3CN4C(=NC#N)Nc3ccccc3)[C@H](c3ccc(Cl)c(Cl)c3)C2)c1` [Example 30], the Ki in experiment [1] turned out to be 34 nM; in experiment [2] it was 24 nM.
Take `CNC(=O)c1ccc(CN2[C@@H]3CC[C@H]2C[C@@H](OCC(=O)N2CCN(C(=O)c4cc(C)cc(C)c4)C[C@H]2c2ccc(Cl)c(Cl)c2)C3)cc1` [Example 58]: the values for the Ki in experiment [1] and in experiment [2] were 19 nM and 57 nM, respectively.
`CC(=O)Nc1ccc(CN2C[C@@H]3C[C@H]2C[C@H]3OCC(=O)N2CCN(C(=O)c3cc(C)cc(C)c3)C[C@H]2c2ccc(Cl)c(Cl)c2)cc1` [Example 51]: the Ki in experiment [1] is 1.5 nM; in experiment [2] it was 4.4 nM.
For the molecule `CNC(=O)N[C@H](Cc1ccccc1)C(=O)N1C[C@@H]2C[C@H]1CN2CCC(=O)N1CCN(C(=O)c2cc(C)cc(C)c2)C[C@H]1c1ccc(Cl)c(Cl)c1` [35 (R = --CH3)], the Ki was found to be 6.3 nM in experiment [1] and 0.93 nM in experiment [2].
`Cc1cc(C)cc(C(=O)N2CCN(C(=O)CCN3C[C@@H]4C[C@H]3CN4C(=O)[C@@H](N)Cc3cccs3)[C@H](c3ccc(Cl)c(Cl)c3)C2)c1`: the results for the inhibition constant Ki in experiment [1] and in experiment [2] were 16 nM and 0.35 nM, respectively.
The like results for `Cc1cc(C)cc(C(=O)N2CCN(C(=O)CO[C@H]3C[C@H]4CC[C@@H](C3)N4C(=O)OC(C)(C)C)[C@H](c3ccc(Cl)c(Cl)c3)C2)c1` [Example 56, (Endo)-1,1-dimethylethyl 3-[2-[2(R)-(3,4-dichlorophenyl)-4-(3,5-dimethylbenzoyl)-1-piperazinyl]-2-oxoethoxy]-8-aza[3.2.1]octane-8-carboxylate] were, in that order, > 100 nM and 55 nM.
On to `Cc1cc(C)cc(C(=O)N2CCN(C(=O)CCN3C[C@@H]4C[C@H]3CN4C(=O)[C@H](Cc3ccccc3)NC(=O)OC(C)(C)C)[C@H](c3ccc(Cl)c(Cl)c3)C2)c1`, for which the inhibitory constant (Ki) in experiment [1] came out at 45 nM; in experiment [2] it was 14 nM.
`Cc1cc(C)cc(C(=O)N2CCN(C(=O)CN[C@H]3C[C@H]4CC[C@@H](C3)N4C(=O)OC(C)(C)C)[C@H](c3ccc(Cl)c(Cl)c3)C2)c1` [Example 67]: the figures for the Ki in experiment [1] and in experiment [2] were 159 nM and 9.3 nM, respectively.

Values taken from patent publication US5968929A, “Piperazino derivatives as neurokinin antagonists” (Schering Corporation, priority 1997, dated 1999).
